Measured values reported in patent US20220193081A1 (Ellamed IP & Services PTE. LTD., priority 2019, published 2022).
Like-named read-outs stand apart in the source and are kept apart here.

How the values were obtained:
[1] = HPLC assay on storage of sildenafil citrate with equal concentration of sucralose in pH adjusted 50% ethanol (Example 2); assay type: physicochemical; details: for concentration of sildenafil by HPLC / Impurity B / Impurity D / sildenafil assay: 21 mg/ml; for Impurity B / Impurity D / sildenafil assay: 25° C., Day 285
Protocol: At room temperature, a phosphate buffer was prepared by weighing 3.9 g of NaH2PO4.2H2O into a 500 mL volumetric flask and adding approximately 300 mL of purified water until the phosphate fully dissolved. The pH was then adjusted to 7 with the introduction of NaOH and dilute to the requisite volume by the further addition of purified water.
A 50% ethanol mixture was prepared by introducing either purified water, taken from a MilliQ™ unit or phosphate buffer, to equivalent volumes of Ph.Eur. grade absolute alcohol. The pH of the resultant mixture was then adjusted by using either NaOH 1N solutions and/or Sodium Citrate 1N solutions to reach predetermined pH values.
Samples of sucralose were then dissolved in the pH adjusted 50% ethanol, whilst stirred with a magnetic stirrer and a needle, to a predetermined concentration. […] After preparation, the solutions were each filtered through PDVF 0.22 micro filter of 13 mm in size and placed in polypropylene containers of adequate volume.
Before being placed on storage, and at time points 7 and 42 days, the concentration of sildenafil in the mixture was assayed using HPLC. The samples were then stored at either −20° C., 2-8° C. or 25° C. for periods of up to 42 days. Periodically, the samples were visually inspected for evidence of precipitation or crystallization. […]
The samples of 21 mg/ml at a pH of 5.6 were maintained in stability testing at 25° C. for a total of 285 days.

[2] = Ionic strength study, visual inspection: sildenafil citrate and sucralose in absolute alcohol mixed with equal volume of NaCl solution or purified water (Example 3); assay type: physicochemical
Protocol: The mixtures were then either placed on storage or NaOH 1N solution was introduced to reach a predetermined pH values. Before being placed on storage, and at time points 7 and 42 days, the concentration of sildenafil in the mixtures were assayed using HPLC. The samples were then stored at either −20° C., 2-8° C. or 25° C. for periods of up to 42 days. Periodically, the samples were visually inspected for evidence of crystallization.

[3] = cited from earlier work
[4] = tablets or oral suspension; cited from earlier work
[5] = EMEA CHMP Assessment Report for VIZARSIN
[6] = Jordanian Pharmaceutical Manufacturing Co.

CCCc1nn(C)c2c(=O)nc(-c3cc(S(=O)(=O)N4CCN(C)CC4)ccc3OCC)[nH]c12.O=C(O)CC(O)(CC(=O)O)C(=O)O [sildenafil citrate, 1-[[3-(4,7-Dihydro-1-methyl-7-oxo-3-propyl-1H-pyrazolo[4,3-d]pyrimidin-5-yl)-4-ethoxyphenyl]sulfonyl]-4-methylpiperazine citrate salt]
concentration of sildenafil by HPLC ([1]; pH 5.29, NaOH, 50% ethanol/phosphate buffer, 2-8 ° C., Day 7): 20970 µg/mL | concentration of sildenafil by HPLC ([1]; pH 5.29, NaOH, 50% ethanol/phosphate buffer, 25 ° C., Day 7): 20980 µg/mL | concentration of sildenafil by HPLC ([1]; pH 5.29, NaOH, 50% ethanol/phosphate buffer, Day 0): 20940 µg/mL | concentration of sildenafil by HPLC ([1]; pH 5.5, NaOH, 2-8 ° C., Day 7): 20860 µg/mL | concentration of sildenafil by HPLC ([1]; pH 5.5, NaOH, 25 ° C., Day 7): 20970 µg/mL | concentration of sildenafil by HPLC ([1]; pH 5.5, NaOH, Day 0): 21110 µg/mL | concentration of sildenafil by HPLC ([1]; pH 5.5, Sodium Citrate, 2-8 ° C., Day 7): 21140 µg/mL | concentration of sildenafil by HPLC ([1]; pH 5.5, Sodium Citrate, 25 ° C., Day 7): 21220 µg/mL | concentration of sildenafil by HPLC ([1]; pH 5.5, Sodium Citrate, Day 0): 21320 µg/mL | concentration of sildenafil by HPLC ([1]; pH 5.6, NaOH, 2-8 ° C., Day 7): 21040 µg/mL | concentration of sildenafil by HPLC ([1]; pH 5.6, NaOH, 2-8 ° C., Day 42): 21430 µg/mL | concentration of sildenafil by HPLC ([1]; pH 5.6, NaOH, 25 ° C., Day 7): 21020 µg/mL | concentration of sildenafil by HPLC ([1]; pH 5.6, NaOH, 25 ° C., Day 42): 21320 µg/mL | Impurity B ([1]; pH 5.6, NaOH): 0.00 | Impurity D ([1]; pH 5.6, NaOH): 0.02 | sildenafil assay ([1]; pH 5.6, NaOH): 21.16 | concentration of sildenafil by HPLC ([1]; pH 5.6, NaOH, 50% ethanol/phosphate buffer, 2-8 ° C., Day 7): 20930 µg/mL | concentration of sildenafil by HPLC ([1]; pH 5.6, NaOH, 50% ethanol/phosphate buffer, 25 ° C., Day 7): 20990 µg/mL | concentration of sildenafil by HPLC ([1]; pH 5.6, NaOH, 50% ethanol/phosphate buffer, Day 0): 20970 µg/mL | concentration of sildenafil by HPLC ([1]; pH 5.6, NaOH, Day 0): 21200 µg/mL | concentration of sildenafil by HPLC ([1]; pH 5.6, Sodium Citrate, 2-8 ° C., Day 7): 20990 µg/mL | concentration of sildenafil by HPLC ([1]; pH 5.6, Sodium Citrate, 2-8 ° C., Day 42): 21410 µg/mL | concentration of sildenafil by HPLC ([1]; pH 5.6, Sodium Citrate, 25 ° C., Day 7): 21060 µg/mL | concentration of sildenafil by HPLC ([1]; pH 5.6, Sodium Citrate, 25 ° C., Day 42): 21270 µg/mL | Impurity B ([1]; pH 5.6, Sodium Citrate): 0.01 | Impurity D ([1]; pH 5.6, Sodium Citrate): 0.02 | sildenafil assay ([1]; pH 5.6, Sodium Citrate): 21.14 | concentration of sildenafil by HPLC ([1]; pH 5.6, Sodium Citrate, Day 0): 21260 µg/mL | concentration of sildenafil by HPLC ([1]; pH 5.8, NaOH, 2-8 ° C., Day 7): 20950 µg/mL | concentration of sildenafil by HPLC ([1]; pH 5.8, NaOH, 25 ° C., Day 7): 21730 µg/mL | concentration of sildenafil by HPLC ([1]; pH 5.8, NaOH, Day 0): 21150 µg/mL | concentration of sildenafil by HPLC ([1]; pH 5.8, Sodium Citrate, 2-8 ° C., Day 7): 20960 µg/mL | concentration of sildenafil by HPLC ([1]; pH 5.8, Sodium Citrate, 25 ° C., Day 7): 21070 µg/mL | concentration of sildenafil by HPLC ([1]; pH 5.8, Sodium Citrate, Day 0): 21080 µg/mL | concentration of sildenafil by HPLC ([1]; pH 6.01, NaOH, 50% ethanol/phosphate buffer, 2-8 ° C., Day 7): 16220 µg/mL | concentration of sildenafil by HPLC ([1]; pH 6.01, NaOH, 50% ethanol/phosphate buffer, 25 ° C., Day 7): 18020 µg/mL | concentration of sildenafil by HPLC ([1]; pH 6.01, NaOH, 50% ethanol/phosphate buffer, Day 0): 20770 µg/mL | breakdown products ([1]; any of the conditions tested, up to 42 days): No breakdown products were identified | visual inspection for crystallization ([2]; 15 mg/ml, pH 4.39, NaCl diluent 100 mM, initially added to 40 ml of diluent, −20° C.): Prec. | visual inspection for crystallization ([2]; 15 mg/ml, pH 4.45, NaCl diluent 50 mM, −20° C.): Prec. | visual inspection for crystallization ([2]; 15 mg/ml, pH 4.52, NaCl diluent 25 mM, 2-8° C.): Prec. | visual inspection for crystallization ([2]; 15 mg/ml, pH 4.52, NaCl diluent 25 mM, −20° C.): Prec. | visual inspection for crystallization ([2]; 15 mg/ml, pH 4.75, purified water diluent, 2-8° C.): Prec. | visual inspection for crystallization ([2]; 15 mg/ml, pH 4.75, purified water diluent, −20° C.): Prec. | visual inspection for crystallization ([2]; 18 mg/ml, pH 5.5 (NaOH), NaCl diluent 100 mM, −20° C.): Prec. | visual inspection for crystallization ([2]; 21 mg/ml, pH 5.5 (NaOH), NaCl diluent 100 mM, −20° C.): Prec. | solubility in acetone [3, 5]: insoluble | solubility in chloroform [3, 5]: insoluble | solubility in dimethyl sulfoxide (DMSO) [3, 5]: soluble | solubility in ethanol [3, 5]: insoluble | solubility in methanol [3, 5]: soluble | solubility in ethanol [3, 6]: ~1000 µg/mL | times less soluble in ethanol than in water [3, 6]: about 3.5 times | absolute bioavailability [4]: about 41%
